In ChEMBL document CHEMBL1159293, “Additional bioactive acetogenins, annomutacin and (2,4-trans and cis)-10R-annonacin-A-ones, from the leaves of Annona muricata” (J Nat Prod, 1995) one finds LC50 and EC50 data, which are given here for four compounds.

Series [1] can be described thus: (§1) Toxicity to brine shrimp. The series is classed as organism-based. The settings on record: artemia, in vivo.
Another series relates to HT-29. The experiment in a line: Cytotoxicity against human HT-29 cells after 7 days by MTT assay. The series is classed as functional. To be noted: HT-29, 168 h, read-out: ED50 (the source's name).
In a further series the test system is MCF7. The experiment in a line: Cytotoxicity against human MCF7 cells after 7 days by MTT assay. The series is classed as functional. The settings on record: MCF7, 168 h, read-out: ED50 (the source's name). Background: Tetrazolium assays rely on reduction of a dye to a coloured formazan, in cell work by metabolically active cells.
The next series concerns A549. The experiment in a line: Cytotoxicity against human A549 cells after 7 days by MTT assay. The series is classed as functional. To be noted: A549, 168 h, read-out: ED50 (the source's name).
The test system of another series is Artemia. The description is as §1. To be noted: in vivo. The series is classed as organism-based.

Structures are written as SMILES. Values after ≈ are worked out from the molar mass of the structure shown.

Consider `COc1cccc2c1C(=O)c1c(O)c3c(c(O)c1C2=O)C[C@@](O)(C(=O)CO)C[C@@H]3O[C@H]1C[C@H](N)[C@H](O)[C@H](C)O1` [DOXORUBICIN], for which the LC50 in series [1] worked out at 0.313 µg/mL (≈ 0.576 µM).
As to `CCCCCCCCCCCC[C@H](O)[C@H]1CC[C@H]([C@H](O)CCCC[C@H](O)CCCCC[C@@H]2C[C@H](CC(C)=O)C(=O)O2)O1`, the EC50 in the series with HT-29 was above 1 µg/mL; in the series with MCF7, 0.57 µg/mL (≈ 0.955 µM); in the series on A549, 0.174 µg/mL (≈ 0.292 µM). Moreover, the LC50 in series [1] worked out at 0.112 µg/mL (≈ 0.188 µM).
With `CCCCCCCCCCCC[C@H](O)[C@H]1CC[C@H]([C@H](O)CCCC[C@H](O)CCCCC[C@@H]2C[C@@H](CC(C)=O)C(=O)O2)O1`, the EC50 with HT-29 was above 1 µg/mL; in the series with MCF7, 0.57 µg/mL (≈ 0.955 µM); with A549, 0.174 µg/mL (≈ 0.292 µM). In addition, the LC50 in series [1] came to 0.112 µg/mL (≈ 0.188 µM).
`CCCCCCCCCCCC[C@H](O)[C@@H]1CC[C@@H]([C@@H](O)CCCCCCC(O)CCCCC[C@@H](O)CC2=C[C@H](C)OC2=O)O1` (stereo partly drawn) [ANNOMONTACIN]: the results for the EC50 in the series with HT-29, in the series on MCF7 and with A549 were above 1 µg/mL, above 1 µg/mL and 0.0157 µg/mL (≈ 0.0251 µM), respectively. In the series on Artemia, this compound showed an LC50 of 3.91 ×10⁻² ug/ml.
